Source: ChEMBL document CHEMBL1152844, “Synthesis and anti-HIV studies of 2- and 3-adamantyl-substituted thiazolidin-4-ones” (Eur J Med Chem, 2009)
Active and inactive are the calls of the source. The rule behind the calls is not given here.

What was measured:
[1] = test system: Human immunodeficiency virus 1; test: Antiviral activity against HIV1 3B infected in human CEM cells assessed as inhibition of virus-induced cytopathicity after 4 days; assay type: functional, organism-based; settings: Human immunodeficiency virus 1, 3B, CCRF-CEM, 96 h
[2] = test system: Human immunodeficiency virus 2; test: Antiviral activity against HIV2 ROD infected in human CEM cells assessed as inhibition of virus-induced cytopathicity after 4 days; assay type: functional, organism-based; settings: Human immunodeficiency virus 2, ROD, CCRF-CEM, 96 h
[3] = Cytotoxicity against HIV-infected human CEM cells; assay type: cell-based, CCRF-CEM; settings: HIV-infected CEM (CCRF-CEM) cells
[4] = Selectivity index, ratio of CC50 for human CEM cells to EC50 for HIV1 3B; assay type: toxicity, cell-based, CCRF-CEM; settings: read-out: Ratio CC50/EC50
Human alphaherpesvirus 1 = test: Antiviral activity against Herpes simplex virus type 1 infected in HEL cells; assay type: functional, organism-based
Human alphaherpesvirus 2 = test: Antiviral activity against Herpes simplex virus type 2 infected in HEL cells; assay type: functional, organism-based
Vaccinia virus = test: Antiviral activity against Vaccinia virus infected in HEL cells; assay type: functional, organism-based; settings: Orthopoxvirus vaccinia
[5] = test system: Vesicular stomatitis virus; test: Antiviral activity against Vesicular stomatitis virus infected in HEL cells; assay type: functional, organism-based
Human respirovirus 3 = test: Antiviral activity against Parainfluenza virus type 3 infected in african green monkey Vero cells; assay type: functional, organism-based
[6] = test system: Mammalian orthoreovirus 1; test: Antiviral activity against Reovirus 1 infected in african green monkey Vero cells; assay type: functional, organism-based
Sindbis virus = test: Antiviral activity against Sindbis virus infected in african green monkey Vero cells; assay type: functional, organism-based
Coxsackievirus B4 [7] = test: Antiviral activity against Coxsackievirus B4 infected in african green monkey Vero cells; assay type: functional, organism-based
Punta Toro virus = test: Antiviral activity against Punta Toro virus infected in african green monkey Vero cells; assay type: functional, organism-based
[8] = test system: Vesicular stomatitis virus; test: Antiviral activity against Vesicular stomatitis virus infected in human HeLa cells; assay type: functional, organism-based
[9] = test system: Respiratory syncytial virus; test: Antiviral activity against Respiratory syncytial virus infected in human HeLa cells; assay type: functional, organism-based
Coxsackievirus B4 [10] = test: Antiviral activity against Coxsackievirus B4 infected in human HeLa cells; assay type: functional, organism-based
Feline coronavirus = test: Antiviral activity against Feline coronavirus infected in crandel feline kidney cells; assay type: functional, organism-based
Influenza A virus [11] = test: Antiviral activity against Influenza virus type A H1N1 infected in MDCK cells; assay type: functional, organism-based
Influenza A virus [12] = test: Antiviral activity against Influenza virus type A H3N2 infected in MDCK cells; assay type: functional, organism-based
Influenza B virus = test: Antiviral activity against Influenza virus type B infected in MDCK cells; assay type: functional, organism-based
[13] = molecular target: Human immunodeficiency virus type 1 reverse transcriptase (Human immunodeficiency virus 1, UniProt Q72547); test: Activity at HIV1 non-nucleoside reverse transcriptase
[14] = molecular target: Human immunodeficiency virus type 1 reverse transcriptase (Human immunodeficiency virus 1) (UniProt Q72547); test: Ratio of Ki to Km for HIV1 non-nucleoside reverse transcriptase

SMILES	EC50 [2] [µM]	selectivity ratio [4]	Activity (Human alphaherpesvirus 1)	Activity (Human alphaherpesvirus 2)	Activity (Vaccinia virus)	Activity [5]	Activity (Human respirovirus 3)	Activity [6]	Activity (Sindbis virus)	Activity (Coxsackievirus B4 [7])	Activity (Punta Toro virus)	Activity [8]	Activity [9]	Activity (Coxsackievirus B4 [10])	Activity (Feline coronavirus)	Activity (Influenza A virus [11])	Activity (Influenza A virus [12])	Activity (Influenza B virus)	further results
CCN(CC)CCN1C(=O)CSC1CC12CC3CC(CC(C3)C1)C2 (stereo not given)	46	< 1.4	inactive	inactive	inactive	inactive	inactive	inactive	inactive	inactive	inactive	inactive	inactive	inactive	inactive	inactive	inactive	inactive	EC50 [1]: 30.8 µM; CC50 [3]: 43 µM
Cc1cc(C)nc(N2C(=O)CSC2C23CC4CC(CC(C4)C2)C3)c1 (racemic)	> 12	120	inactive	inactive	inactive	inactive	inactive	inactive	inactive	inactive	inactive	inactive	inactive	inactive	inactive	inactive	inactive	inactive	Ki [13]: 12 µM; Ratio [14]: 5.5
